{"source": "patent US20070225348A1", "about": "“Amino acid composition for improving glucose tolerance” (priority 2005, published 2007)", "system": "Zucker Diabetic Fatty rats (model with type 2 diabetes mellitus)", "experiment": "Experiment 2: blood glucose response after oral gavage of glucose with amino acid test mixture or isoleucine solution", "format": "in vivo, rat", "conditions": "oral gavage 8 ml/kg with glucose, measured at 30, 60, 90 and 120 minutes, control 22.5% glucose solution", "procedure": "The control formula (22.5% glucose solution) and the amino acid test formula described in Experiment 1 are prepared and subsequently used in this second experiment, along with an isoleucine mixture as described below. In this second experiment, a high dose isoleucine mixture is prepared by adding L-isoleucine ([…]) to 50 ml beaker followed by 10 ml of 1N HCL. The beaker contents are mixed until dissolved, and thereafter to it is added with agitation 25 ml of a 45% glucose solution. The pH of the resulting mixture is adjusted to 7.0 (+/−1.0) with a 50% sodium hydroxide solution (buffer may be added to stabilize pH). The pH adjusted mixture is transferred to a 50 ml volumetric and brought to volume with distilled water. The mixture is transferred to a beaker with stir bar and continually stirred while filling syringes. Zucker Diabetic Fatty rats, a model of type 2 diabetes, are received at the animal facility for at least one week before testing. Each is weighed the day before the experiment and then assigned to one of […] matched for body weight. After an overnight fast, each rat is weighed and then dosed at 8 ml/kg body weight (oral gavage) with the glucose control, the amino acid test mixture, or the isoleucine solution. Blood glucose concentrations are then measured from the tip of the tail of each animal at 30, 60, 90 and 120 minutes following the gavage."}
{"smiles": "CC[C@H](C)[C@H](N)C(=O)O", "note": "[high dose isoleucine, L-isoleucine]", "values": [{"measurement": "blood glucose concentrations relative to the control", "value": "does not significantly affect blood glucose concentrations"}]}
